# Assays:
# Assay in all cases: Histone peptide microarray
# Assay type in all cases: binding, human
# Settings in all cases: histone peptide array
# AIRE (PP) = test system: AIRE (PP)
# Method in brief: (§1)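 Recombinant GST-PHD protein at 0.5 μM; 293-member modified histone peptide array; signals averaged from four repeats ± SD.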
# BAZ2B = test system: BAZ2B
# Method in brief: as §1
# BPTF (PB) = test system: BPTF (PB)
# Method in brief: as §1
# CHD4 (PPCC) = test system: CHD4 (PPCC)
# Method in brief: as §1
# CHD5 (PCC) = test system: CHD5 (PCC)
# Method in brief: as §1
# CHD5 (PPCC) = test system: CHD5 (PPCC)
# Method in brief: as §1
# DIDO1 = test system: DIDO1
# Method in brief: as §1
# DPF2 (PPC2W2) = test system: DPF2 (PPC2W2)
# Method in brief: as §1
# ING1 = test system: ING1
# Method in brief: as §1
# ING2 = test system: ING2
# Method in brief: as §1
# ING3 = test system: ING3
# Method in brief: as §1
# ING4 = test system: ING4
# Method in brief: as §1
# ING5 = test system: ING5
# Method in brief: as §1
# KDM4C (TTP) = test system: KDM4C (TTP)
# Method in brief: as §1
# KDM5A (1) = test system: KDM5A (1)
# Method in brief: as §1
# KDM5A (3) = test system: KDM5A (3)
# Method in brief: as §1
# KDM5B (1) = test system: KDM5B (1)
# Method in brief: as §1
# KDM5B (3) = test system: KDM5B (3)
# Method in brief: as §1
# KDM7A = test system: KDM7A
# Method in brief: as §1
# MLL5 = test system: MLL5
# Method in brief: as §1
# MORC3 (CW) = test system: MORC3 (CW)
# Method in brief: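 Steps: express and purify GST-tagged PHD reader; incubate 0.5 μM protein on a peptide microarray (293 histone peptides, single or combined PTMs) following an optimized protocol; average signal across 4 replicates.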
# PHF13 = test system: PHF13
# Method in brief: as §1
# PHF21A = test system: PHF21A
# Method in brief: as §1
# PHF23 = test system: PHF23
# Method in brief: as §1
# PHF2 = test system: PHF2
# Method in brief: as §1
# PHF8 = test system: PHF8
# Method in brief: as §1
# PHRF1 (RP) = test system: PHRF1 (RP)
# Method in brief: as §1
# RAG2 = test system: RAG2
# Method in brief: as §1
# SP140L = test system: SP140L
# Method in brief: as §1
# TAF3 = test system: TAF3
# Method in brief: as §1
# TRIM66 (PB) = test system: TRIM66 (PB)
# Method in brief: as §1
# [1] = sheet "Array Heatmap", GST-tagged reader, total n = 4
substance,measurement,setting,value
H3T3p: H3 1-20 [Peptide H3T3p],"Array Heatmap signal, AIRE (PP)","AIRE (PP); GST-tagged AIRE (PP), arrays performed twice, n of 4",0.5392
same,"Array Heatmap signal, AIRE (PP)",AIRE (PP); [1],0.548
same,"Array Heatmap signal, BAZ2B","BAZ2B; GST-tagged BAZ2B, arrays performed twice, n of 4",0.469
same,"Array Heatmap signal, BAZ2B",BAZ2B; [1],0.5253
same,"Array Heatmap signal, BPTF (PB)","BPTF (PB); GST-tagged BPTF (PB = PHD + Bromodomain), arrays performed twice, n of 4",0.3368
same,"Array Heatmap signal, BPTF (PB)",BPTF (PB); [1],0.3878
same,"Array Heatmap signal, CHD4 (PPCC)","CHD4 (PPCC); GST-tagged CHD4 (PPCC = Dual PHD + Dual Chromodomain), arrays performed twice, n of 4",0.5719
same,"Array Heatmap signal, CHD4 (PPCC)",CHD4 (PPCC); [1],0.6586
same,"Array Heatmap signal, CHD5 (PCC)","CHD5 (PCC); GST-tagged CHD5 (PCC = PHD + Dual Chromodomain), arrays performed twice, n of 4",0.8206
same,"Array Heatmap signal, CHD5 (PCC)",CHD5 (PCC); [1],0.8423
same,"Array Heatmap signal, CHD5 (PPCC)","CHD5 (PPCC); GST-tagged CHD5 (PPCC = Dual PHD + Dual Chromodomain), arrays performed twice, n of 4",0.549
same,"Array Heatmap signal, CHD5 (PPCC)",CHD5 (PPCC); [1],0.6245
same,"Array Heatmap signal, DIDO1","DIDO1; GST-tagged DIDO1, arrays performed twice, n of 4",0.6402
same,"Array Heatmap signal, DIDO1",DIDO1; [1],0.7808
same,"Array Heatmap signal, DPF2 (PPC2W2)","DPF2 (PPC2W2); GST-tagged DPF2 (PPC2W2 = Dual PHD + C2W2-type Zn-finger), arrays performed twice, n of 4",0.671
same,"Array Heatmap signal, DPF2 (PPC2W2)",DPF2 (PPC2W2); [1],0.7196
same,"Array Heatmap signal, ING1","ING1; GST-tagged ING1, arrays performed twice, n of 4",0.5096
same,"Array Heatmap signal, ING1",ING1; [1],0.5929
same,"Array Heatmap signal, ING2","ING2; GST-tagged ING2, arrays performed twice, n of 4",0.5798
same,"Array Heatmap signal, ING2",ING2; [1],0.6196
same,"Array Heatmap signal, ING3","ING3; GST-tagged ING3, arrays performed twice, n of 4",0.4483
same,"Array Heatmap signal, ING3",ING3; [1],0.5306
same,"Array Heatmap signal, ING4","ING4; GST-tagged ING4, arrays performed twice, n of 4",0.4601
same,"Array Heatmap signal, ING4",ING4; [1],0.5373
same,"Array Heatmap signal, ING5","ING5; GST-tagged ING5, arrays performed twice, n of 4",0.3543
same,"Array Heatmap signal, ING5",ING5; [1],0.4158
same,"Array Heatmap signal, KDM4C (TTP)","KDM4C (TTP); GST-tagged KDM4C (TTP = Tandem Tudor domain + PHD), arrays performed twice, n of 4",0.5211
same,"Array Heatmap signal, KDM4C (TTP)",KDM4C (TTP); [1],0.5646
same,"Array Heatmap signal, KDM5A (1)","KDM5A (1); GST-tagged KDM5A (1), arrays performed twice, n of 4",0.4969
same,"Array Heatmap signal, KDM5A (1)",KDM5A (1); [1],0.535
same,"Array Heatmap signal, KDM5A (3)","KDM5A (3); GST-tagged KDM5A (3), arrays performed twice, n of 4",0.3913
same,"Array Heatmap signal, KDM5A (3)",KDM5A (3); [1],0.4935
same,"Array Heatmap signal, KDM5B (1)","KDM5B (1); GST-tagged KDM5B (1), arrays performed twice, n of 4",0.6719
same,"Array Heatmap signal, KDM5B (1)",KDM5B (1); [1],0.685
same,"Array Heatmap signal, KDM5B (3)","KDM5B (3); GST-tagged KDM5B (3), arrays performed twice, n of 4",0.5071
same,"Array Heatmap signal, KDM5B (3)",KDM5B (3); [1],0.5631
same,"Array Heatmap signal, KDM7A","KDM7A; GST-tagged KDM7A, arrays performed twice, n of 4",0.4522
same,"Array Heatmap signal, KDM7A",KDM7A; [1],0.4256
same,"Array Heatmap signal, MLL5","MLL5; GST-tagged MLL5, arrays performed twice, n of 4",0.5378
same,"Array Heatmap signal, MLL5",MLL5; [1],0.5888
same,"Array Heatmap signal, MORC3 (CW)","MORC3 (CW); GST-tagged MORC3 (CW = CW-type Zn-finger), arrays performed twice, n of 4",0.3786
same,"Array Heatmap signal, MORC3 (CW)",MORC3 (CW); [1],0.4886
same,"Array Heatmap signal, PHF13","PHF13; GST-tagged PHF13, arrays performed twice, n of 4",0.5934
same,"Array Heatmap signal, PHF13",PHF13; [1],0.6741
same,"Array Heatmap signal, PHF21A","PHF21A; GST-tagged PHF21A, arrays performed twice, n of 4",0.4766
same,"Array Heatmap signal, PHF21A",PHF21A; [1],0.5237
same,"Array Heatmap signal, PHF23","PHF23; GST-tagged PHF23, arrays performed twice, n of 4",0.4911
same,"Array Heatmap signal, PHF23",PHF23; [1],0.575
same,"Array Heatmap signal, PHF2","PHF2; GST-tagged PHF2, arrays performed twice, n of 4",0.434
same,"Array Heatmap signal, PHF2",PHF2; [1],0.5551
same,"Array Heatmap signal, PHF8","PHF8; GST-tagged PHF8, arrays performed twice, n of 4",0.352
same,"Array Heatmap signal, PHF8",PHF8; [1],0.4275
same,"Array Heatmap signal, PHRF1 (RP)","PHRF1 (RP); GST-tagged PHRF1 (RP), arrays performed twice, n of 4",0.4037
same,"Array Heatmap signal, PHRF1 (RP)",PHRF1 (RP); [1],0.5425
same,"Array Heatmap signal, RAG2","RAG2; GST-tagged RAG2, arrays performed twice, n of 4",0.2333
same,"Array Heatmap signal, RAG2",RAG2; [1],0.2772
same,"Array Heatmap signal, SP140L","SP140L; GST-tagged SP140L, arrays performed twice, n of 4",0.3332
same,"Array Heatmap signal, SP140L",SP140L; [1],0.3882
same,"Array Heatmap signal, TAF3","TAF3; GST-tagged TAF3, arrays performed twice, n of 4",0.2971
same,"Array Heatmap signal, TAF3",TAF3; [1],0.3113
same,"Array Heatmap signal, TRIM66 (PB)","TRIM66 (PB); GST-tagged TRIM66 (PB = PHD + Bromodomain), arrays performed twice, n of 4",0.6313
same,"Array Heatmap signal, TRIM66 (PB)",TRIM66 (PB); [1],0.6558
H3T6p + K9ac + K14ac + K18ac: H3 1-20,"Array Heatmap signal, AIRE (PP)",AIRE (PP); [1],0.4905
same,"Array Heatmap signal, BAZ2B",BAZ2B; [1],0.5434
same,"Array Heatmap signal, BPTF (PB)",BPTF (PB); [1],0.3772
same,"Array Heatmap signal, CHD4 (PPCC)",CHD4 (PPCC); [1],0.6105
same,"Array Heatmap signal, CHD5 (PCC)",CHD5 (PCC); [1],0.8634
same,"Array Heatmap signal, CHD5 (PPCC)",CHD5 (PPCC); [1],0.5917
same,"Array Heatmap signal, DIDO1",DIDO1; [1],0.7306
same,"Array Heatmap signal, DPF2 (PPC2W2)",DPF2 (PPC2W2); [1],0.6625
same,"Array Heatmap signal, ING1",ING1; [1],0.5258
same,"Array Heatmap signal, ING2",ING2; [1],0.6332
same,"Array Heatmap signal, ING3",ING3; [1],0.5178
same,"Array Heatmap signal, ING4",ING4; [1],0.4858
same,"Array Heatmap signal, ING5",ING5; [1],0.4002
same,"Array Heatmap signal, KDM4C (TTP)",KDM4C (TTP); [1],0.5471
same,"Array Heatmap signal, KDM5A (1)",KDM5A (1); [1],0.5024
same,"Array Heatmap signal, KDM5A (3)",KDM5A (3); [1],0.5014
same,"Array Heatmap signal, KDM5B (1)",KDM5B (1); [1],0.6556
same,"Array Heatmap signal, KDM5B (3)",KDM5B (3); [1],0.5165
same,"Array Heatmap signal, KDM7A",KDM7A; [1],0.5379
same,"Array Heatmap signal, MLL5",MLL5; [1],0.6174
same,"Array Heatmap signal, MORC3 (CW)",MORC3 (CW); [1],0.436
same,"Array Heatmap signal, PHF13",PHF13; [1],0.6581
same,"Array Heatmap signal, PHF21A",PHF21A; [1],0.4965
same,"Array Heatmap signal, PHF23",PHF23; [1],0.5587
same,"Array Heatmap signal, PHF2",PHF2; [1],0.4724
same,"Array Heatmap signal, PHF8",PHF8; [1],0.3706
same,"Array Heatmap signal, PHRF1 (RP)",PHRF1 (RP); [1],0.4494
same,"Array Heatmap signal, RAG2",RAG2; [1],0.2892
same,"Array Heatmap signal, SP140L",SP140L; [1],0.3823
same,"Array Heatmap signal, TAF3",TAF3; [1],0.2973
same,"Array Heatmap signal, TRIM66 (PB)",TRIM66 (PB); [1],0.6292
